Key:
COX-1 = molecular target: T1, COX-1 (Mus musculus, UniProt P22437); assay: COX-1 activity in RAW cells; format: cell-based; details: 0.1-100 μM
T1 construct: aliquots used to determine COX-2 and COX-1 activity; endogenous in cells; host or cells: RAW (RAW 264.7) cells
T1 sequence (P22437 27-602): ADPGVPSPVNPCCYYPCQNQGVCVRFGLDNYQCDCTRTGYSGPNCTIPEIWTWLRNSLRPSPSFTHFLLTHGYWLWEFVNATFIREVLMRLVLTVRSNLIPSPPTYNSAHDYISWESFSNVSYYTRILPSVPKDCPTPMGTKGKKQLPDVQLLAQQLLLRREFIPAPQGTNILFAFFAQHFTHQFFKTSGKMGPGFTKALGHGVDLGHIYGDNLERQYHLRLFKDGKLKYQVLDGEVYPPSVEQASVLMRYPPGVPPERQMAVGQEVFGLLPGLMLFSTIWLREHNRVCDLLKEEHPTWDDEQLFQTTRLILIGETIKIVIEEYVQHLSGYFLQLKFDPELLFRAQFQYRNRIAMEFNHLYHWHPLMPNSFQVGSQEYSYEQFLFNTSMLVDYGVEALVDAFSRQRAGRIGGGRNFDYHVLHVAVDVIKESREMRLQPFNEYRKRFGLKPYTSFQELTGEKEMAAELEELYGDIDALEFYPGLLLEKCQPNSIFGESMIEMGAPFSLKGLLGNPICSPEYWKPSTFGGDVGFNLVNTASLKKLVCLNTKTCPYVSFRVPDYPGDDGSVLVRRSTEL
Method: After 1 hour LPS (0.1 pg/mL) was added and cells were incubated an additional 6 hours. Cell supernatant was then collected, aliquoted and frozen at −70° C., and aliquots used to determine COX-2 and COX-1 activity. Compound 11, but not rosiglitazone, inhibited the activity of COX-2 (as measured by PGE2 production in a 50 μl sample).

DBA/1 Lac mice = assay: Collagen-induced arthritis in mice; format: in vivo; details: 50 mg/kg orally daily for 17 days

COC(=O)C(=Cc1cc(OC)cc(OC)c1)c1ccc(Oc2ccc(CC3SC(=O)NC3=O)cc2)cc1 (centres unmarked) [Compound 11, 3-(3,5-Dimethoxyphenyl)-2-{4-[4-(2,4-dioxothiazolidin-5-ylmethyl)-phenoxy]-phenyl}-acrylic acid methyl ester]
inhibition of COX-1 activity (COX-1): Neither compound inhibited | body weight vs vehicle group (DBA/1 Lac mice; FIG. 13A): no change | clinical scores vs vehicle treated group (DBA/1 Lac mice; FIG. 13B): significantly lower | joints affected vs vehicle treated group (DBA/1 Lac mice; FIG. 13C): significantly lower | paw thickness vs vehicle treated group (DBA/1 Lac mice; FIG. 13D): significantly lower
